The subject of data set [1] is mouse peritoneal macrophages (MPM). The data set is described as follows: Cytotoxicity on mouse peritoneal macrophages (MTT reduction). The following applies: for Selectivity Index (SI): IC50 MPM/IC50 axenic amastigotes; for IC50: mouse peritoneal macrophages, MTT reduction. Type of data set: cell-based. The method, then: Leishmania parasites were collected at late exponential growth phase by centrifugation at 1610× g at 4 °C. Elicited mouse peritoneal macrophages (MPM) were obtained from 8-week-old Balb/c mice through i.p. injection with 1 mL of 10% thioglycolate medium 72 h before extraction. Macrophages were obtained by peritoneal washing (10 mL PBS, 4 °C).
(§1) Both activities were assessed by inhibition of MTT (3-(4,5-dimethylthiazol-2-yl)-2,5-diphenyltetrazolium bromide) reduction, as described in [34]. Samples were made in triplicate and assays were repeated at least twice. DMSO content in the medium was adjusted to 0.25% v/v (final concentration), regardless of the final concentration of the drug, and for the control, the untreated parasites. ICx (inhibitory concentration that inhibits parasite growth or enzymatic activity by x%) was calculated using the statistical module of SigmaPlot v11.0 software.
(In general: Tetrazolium assays rely on reduction of a dye to a coloured formazan, in cell work by metabolically active cells.)

Data set [2] has as its system L. infantum promastigotes. The data set is described as follows: Leishmanicidal activity on promastigotes (MTT reduction), Table 2 and Table S1. Type of data set: cell-based, Leishmania infantum. Here is the method: as §1
In a step ahead, the leishmanicidal activity of the compounds on L. pifanoi axenic amastigotes and L. infantum promastigotes was evaluated. Axenic Leishmania amastigotes afford the appraisal of the leishmanicidal activity without the constrains imposed on the access of the compounds to intracellular amastigotes within the parasitophorous vacuole, as well as to preclude the interference of the compounds via host–parasite interface in the final activity. For that, the axenic line of L. pifanoi amastigotes belonging to the mexicana complex was chosen, as in this species the infectivity, antigenicity, and metabolic identity between axenic and intracellular amastigotes have been consistently validated.

Data set [3] has as its system L. pifanoi axenic amastigotes. The data set is described as follows: Leishmanicidal activity on axenic amastigotes (MTT reduction). It is filed as cell-based, Leishmania pifanoi.
Data set [4] deals with LdGSK-3s (Leishmania donovani, UniProt A6N857). The experiment in a line: Inhibition of recombinant LdGSK-3s with Kinase Glo. Conditions: recombinant LdGSK-3s, Kinase Glo. It is filed as biochemical. The method, then:
Extraction, purification, and evaluation of compounds against recombinant LdGSK-3s was carried out as described. For that, a recombinant LdGSK-3s with a His-tag was obtained as inclusion bodies, that were further solubilized, and purified by chromatography first on a Ni^2+ column an in a second step on a DEAE (diethylaminoethyl) ionic exchange column. Samples were made in duplicate, and assays were repeated at least three times. IC50 (inhibitory concentration that decreases enzymatic activity by 50%) was calculated using the statistical module of SigmaPlot v11.0 software. Evaluation of compounds against hGSK-3β was performed using human recombinant GSK-3β purchased from Millipore as described previously. Compounds were prepared as a 10 mM stock solution in DMSO.
Background: Kinase-Glo measures the ATP left after a reaction by luminescence.

Like-named read-outs stand apart in the source and are kept apart here.

Sequence of LdGSK-3s (A6N857 entry or part of it): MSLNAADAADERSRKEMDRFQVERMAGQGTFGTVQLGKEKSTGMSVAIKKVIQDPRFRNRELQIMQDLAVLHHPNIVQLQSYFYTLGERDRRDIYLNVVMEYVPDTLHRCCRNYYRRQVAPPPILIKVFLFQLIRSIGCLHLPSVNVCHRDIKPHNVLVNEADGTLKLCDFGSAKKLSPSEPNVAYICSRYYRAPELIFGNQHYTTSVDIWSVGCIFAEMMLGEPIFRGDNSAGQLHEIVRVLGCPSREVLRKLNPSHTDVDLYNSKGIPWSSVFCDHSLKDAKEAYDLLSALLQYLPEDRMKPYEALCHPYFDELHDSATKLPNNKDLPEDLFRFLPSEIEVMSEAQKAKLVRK

The IC50 is the point on the concentration scale where inhibition reaches its midpoint. Regarding `CC(C)(C)NC1=C(Cl)C(=O)c2ccccc2C1=O` [Compound 8, 2-(tert-Butylamino)-3-chloro-1,4-naphthoquinone], the “Selectivity Index (SI)” value in data set [1] was 1.0. For the same molecule, the IC50 in data set [1] (Peritoneal macrophage) is 17 ± 0.3 µM; in data set [2] (Leishmania infantum), 19.8 ± 3.6 µM; in data set [3] (Leishmania pifanoi), 17.8 ± 1.1 µM; in data set [4], > 10 µM.
Turning to “N-(1,4-Naphthoquinone-2-yl) phenylacetamide [Compound 20]”, the IC50 in data set [1] was 7.5 ± 0.6 µM; in data set [2] it was 7.1 ± 2.1 µM; in data set [3] it was 3.2 ± 0.1 µM; in data set [4], > 10 µM.
For the molecule `O=C1C(Cl)=C(NCc2ccc(Cl)cc2)C(=O)c2ccccc21` [Compound 11, 2-Chloro-3-((4-chlorobenzyl)amino)-1,4-naphthoquinone], the figures for the IC50 in data set [2] (Leishmania infantum), in data set [3] (Leishmania pifanoi) and in data set [4] were > 25 µM, > 25 µM and > 10 µM, respectively.
For orientation: melting point means the temperature, or range, at which the solid turns liquid. In the case of `O=C1C(Cl)=C(NC2CCCCC2)C(=O)c2ccccc21` [Compound 9, 2-Chloro-3-(cyclohexylamino)-1,4-naphthoquinone], the melting point lay in the range of 122 to 123 °C. Besides, the IC50 in data set [2] (Leishmania infantum) is > 25 µM. In addition, the IC50 in data set [3] (Leishmania pifanoi) is > 25 µM. In addition, the IC50 in data set [4] is > 10 µM.
For `CCCNC1=C(Cl)C(=O)c2ccccc2C1=O` [Compound 6, 2-Chloro-3-(propylamino)-1,4-naphthoquinone], the IC50 in data set [2] (Leishmania infantum) was 19.1 ± 1.2 µM; in data set [3] (Leishmania pifanoi), > 25 µM; in data set [4], > 10 µM.
With `O=C1C(Cl)=C(NCc2ccccc2)C(=O)c2ccccc21`, the IC50 in data set [2] (Leishmania infantum) is > 25 µM; in data set [3] (Leishmania pifanoi) it was > 25 µM; in data set [4] it was > 10 µM.
Consider `COc1ccc(COC(=O)NC2=C(Cl)C(=O)c3ccccc3C2=O)cc1` [Compound 4, 4-Methoxybenzyl-(3-chloro-1,4-naphthoquinone-2-yl)carbamate], for which the melting point was 137 to 147 °C. Also, in data set [1], the “Selectivity Index (SI)” value is listed as 2.0. In data set [1] (Peritoneal macrophage), this molecule came in with an IC50 of 7.4 ± 0.8 µM. For the same molecule, half-maximal inhibition in data set [2] (Leishmania infantum) (IC50) was put at 2.9 ± 0.2 µM. The molecule further showed an IC50 in data set [3] (Leishmania pifanoi) of 3.7 ± 1.1 µM. For the same molecule, the IC50 in data set [4] was found to be 4.1 ± 0.1 µM.
For `O=C1Nc2ccc(S(=O)(=O)O)cc2C1=C1Nc2ccccc2C1=NO` [Indirubin-3′-monoxime-5-sulphonic acid, reference compound], the IC50 in data set [4] turned out to be 2.4 µM.
With “N-(1,4-Naphthoquinone-2-yl)acetamide [Compound 18]”, the IC50 in data set [1] was 4 ± 0.2 µM; in data set [2], 4.5 ± 0.5 µM; in data set [3] it was 1.2 ± 0.1 µM; in data set [4], > 10 µM.
As to `COc1cc(COC(=O)NC2=C(Cl)C(=O)c3ccccc3C2=O)cc(OC)c1OC` [Compound 5, 3,4,5-Trimethoxybenzyl-(3-chloro-1,4-naphthoquinone-2-yl)carbamate], the IC50 in data set [1] (Peritoneal macrophage) was found to be 8.1 ± 1 µM; in data set [2] (Leishmania infantum), 3.8 ± 1.9 µM; in data set [3] (Leishmania pifanoi) it was 3.6 ± 0.6 µM; in data set [4], 4.5 ± 0.6 µM.
Take `COc1cc(CNC2=C(Cl)C(=O)c3ccccc3C2=O)cc(OC)c1OC` [Compound 10, 2-Chloro-3-((3,4,5-trimethoxybenzyl)amino)-1,4-naphthoquinone]: the melting point was in the range of 161 to 163 °C. Also, the IC50 in data set [2] (Leishmania infantum) was > 50 µM. For the same molecule, in data set [3] (Leishmania pifanoi), the half-maximal inhibitory concentration (IC50) is > 50 µM. Moreover, the IC50 in data set [4] was > 10 µM.
For the molecule “N-(1,4-Naphthoquinone-2-yl)propionamide [Compound 19]”, the IC50 was 4.3 ± 0.3 µM in data set [1], 5.9 ± 1.8 µM in data set [2], 1.8 ± 0.3 µM in data set [3] and > 10 µM in data set [4].
For the molecule `O=C1C(Cl)=C(Nc2ccc(Cl)cc2)C(=O)c2ccccc21` [Compound 12, 2-Chloro-3-((4-chlorophenyl)amino)-1,4-naphthoquinone], the IC50 in data set [2] (Leishmania infantum) is > 50 µM; in data set [3] (Leishmania pifanoi) it was > 50 µM; in data set [4], > 10 µM.
With `CCCCCNC1=C(Cl)C(=O)c2ccccc2C1=O` [Compound 7, 2-Chloro-3-(pentylamino)-1,4-naphthoquinone], the IC50 in data set [2] (Leishmania infantum) is 16.9 ± 0.4 µM; in data set [3] (Leishmania pifanoi), > 25 µM; in data set [4], > 10 µM.

The values are drawn from PMC9139002, “Naphthoquinone as a New Chemical Scaffold for Leishmanicidal Inhibitors of Leishmania GSK-3” (Biomedicines, 2022).
